Measured values as given in US20220364132A1, “METHOD FOR FORMING A STORAGE STABLE H[…] A LIGNO[…]” (Sekab E- Technology AB, priority 2019, published 2022).

Columns and labels:
Format in all cases: cell-based
Lactobacillus = assay: Bacterial contamination in a non-separated (non-detoxified) spruce hydrolysate, lactic acid by HPLC; settings: FIG. 2
Procedure: Non-detoxified spruce hydrolysate (with added 2 g/l yeast extract; 0.5% sodium phosphate; 0.5 g/l diammonium phosphate; 2 g/l peptone and diluted with water to 30 g/l glucose) was filter sterilized and used to represent feed media. An inoculum was prepared using MRS media and the same contaminated sample as used in previous experiments, and was incubated at 37° C. overnight (16 hours). Sodium sulfite was added at concentrations of 0 mM, 5 mM, 10 mM, 20 mM and 40 mM, respectively, to 25 ml serum bottles with 22.5 ml of the feed media. After inoculation, the bottles were placed on a multiple magnetic stirring plate at room temperature, with samples taken periodically and analyzed using HPLC.
The hydrolysate used may represent a feed stream where no separation of the pretreatment liquid and solid component has taken place. In other words, hydrolysis and fermentation inhibitors are still present in the feed stream.

lactic acid bacteria = assay: Bacterial contamination in a sugar-rich hydrolysate (synthetic media), glucose and lactic acid by HPLC; settings: 5, 10, 20 and 40 mM, room temperature, 11 days, FIG. 3
Source text: The aim of this experiment was to test the potential of sodium sulfite to control bacterial contamination in the storage tanks which contain sugar-rich hydrolysate streams before they are used in fermentations. The hydrolysate is representative of a hydrolysate according to the present disclosure.
(§1) To test the theory, synthetic media was made containing about 90 g/l glucose, 0.5% sodium phosphate/phosphoric acid buffer (pH 5.5), 0.5 g/l diammonium phosphate, 2 g/l yeast extract and 2 g/l peptone. This solution (45 ml) was added to 50 ml serum bottles, along with a magnetic stirrer bar, and autoclaved, where after sodium sulfite at concentrations of 5, 10, 20 and 40 mM was added, while some bottles had no sulfite added, which served as control (0 mM). […] This culture was incubated at 37° C. for 36 hours and used to inoculate all the serum bottles (10% v/v). The serum bottles were then sealed with an airtight septum and a metal ring clamp and two needles were inserted through the septum to allow for sampling. The serum bottles were placed on a magnetic stirrer plate at room temperature (since storage tanks are typically kept at room temperature), with stirring at 100 rpm. Samples were taken periodically and analyzed for glucose and lactic acid using HPLC. Experiments were performed in triplicate. The experiments were continued for 11 days.

Lactobacillus sp. = assay: Bacterial contamination in a sugar-rich hydrolysate comprising 10% non-detoxified spruce hydrolysate, glucose by HPLC
Procedure: as §1
Experiments in this example were performed according to the description in example 2 with the difference that the sugar-rich hydrolysate contained 10% (v/v) non-detoxified spruce hydrolysate. This was done to simulate sugar-rich hydrolysate with some inhibitory impurities present that may arise from insufficient separation and/or washing.
In the “Experiment A” samples, serum bottles were inoculated with Lactobacillus sp. at time 0 hours and incubated at room temperature for 21 days. Samples were taken periodically and analyzed for glucose and lactic acid (not shown here) using HPLC.
In the “Experiment B” samples, serum bottles were inoculated twice—firstly on the first day and again two weeks later, to simulate a re-infection and test the longevity of the inhibitory effect of sodium sulfite.
In Experiment “C”, the third group of serum bottles were inoculated after two weeks of storage at room temperature and inoculated with Lactobacillus (after 14 days).

## O=S([O-])[O-].[Na+].[Na+] [sodium sulfite]
Lactobacillus; 5 to 40 mM sodium sulfite, room temperature
  antimicrobial effect on the hydrolysate: no antimicrobial effect
Lactobacillus; sodium sulfite added (5 to 40 mM)
  bacterial growth: increased bacterial growth
Lactic acid bacteria
  concentration of lactic acid: 0 g/L
  growth of lactic acid bacteria: inhibited the growth
Lactobacillus sp.; 40 mM, hydrolysate with 10% (v/v) non-detoxified spruce hydrolysate, Experiments A-C
  effect on Lactobacillus sp. growth: antimicrobial effect
Lactobacillus sp.; 5-20 mM, hydrolysate with 10% (v/v) non-detoxified spruce hydrolysate
  growth relative to sample with no sulfite (detoxification effect): grew faster
Lactobacillus sp.; Experiment A, 5 mM, 0 h
  Glucose: 83.8 g/L
Lactobacillus sp.; Experiment A, 5 mM, 168 h
  Glucose: 71.9 g/L
Lactobacillus sp.; Experiment A, 5 mM, 336 h
  Glucose: 66.3 g/L
Lactobacillus sp.; Experiment A, 5 mM, 508 h
  Glucose: 65.9 g/L
Lactobacillus sp.; Experiment A, 10 mM, 0 h
  Glucose: 84.8 g/L
Lactobacillus sp.; Experiment A, 10 mM, 168 h
  Glucose: 72.9 g/L
Lactobacillus sp.; Experiment A, 10 mM, 336 h
  Glucose: 64.6 g/L
Lactobacillus sp.; Experiment A, 10 mM, 508 h
  Glucose: 63.8 g/L
Lactobacillus sp.; Experiment A, 20 mM, 0 h
  Glucose: 83.4 g/L
Lactobacillus sp.; Experiment A, 20 mM, 168 h
  Glucose: 75.2 g/L
Lactobacillus sp.; Experiment A, 20 mM, 336 h
  Glucose: 70.1 g/L
Lactobacillus sp.; Experiment A, 20 mM, 508 h
  Glucose: 67.2 g/L
Lactobacillus sp.; Experiment A, 40 mM, 0 h
  Glucose: 82.0 g/L
Lactobacillus sp.; Experiment A, 40 mM, 168 h
  Glucose: 80.1 g/L
Lactobacillus sp.; Experiment A, 40 mM, 336 h
  Glucose: 77.0 g/L
Lactobacillus sp.; Experiment A, 40 mM, 508 h
  Glucose: 82.5 g/L
Lactobacillus sp.; Experiment B, 5 mM, 0 h
  Glucose: 83.8 g/L
Lactobacillus sp.; Experiment B, 5 mM, 168 h
  Glucose: 72.6 g/L
Lactobacillus sp.; Experiment B, 5 mM, 336 h
  Glucose: 66.8 g/L
Lactobacillus sp.; Experiment B, 5 mM, 508 h
  Glucose: 69.0 g/L
Lactobacillus sp.; Experiment B, 10 mM, 0 h
  Glucose: 81.7 g/L
Lactobacillus sp.; Experiment B, 10 mM, 168 h
  Glucose: 71.5 g/L
Lactobacillus sp.; Experiment B, 10 mM, 336 h
  Glucose: 67.9 g/L
Lactobacillus sp.; Experiment B, 10 mM, 508 h
  Glucose: 73.4 g/L
Lactobacillus sp.; Experiment B, 20 mM, 0 h
  Glucose: 83.1 g/L
Lactobacillus sp.; Experiment B, 20 mM, 168 h
  Glucose: 69.0 g/L
Lactobacillus sp.; Experiment B, 20 mM, 336 h
  Glucose: 72.4 g/L
Lactobacillus sp.; Experiment B, 20 mM, 508 h
  Glucose: 72.1 g/L
Lactobacillus sp.; Experiment B, 40 mM, 0 h
  Glucose: 85.2 g/L
Lactobacillus sp.; Experiment B, 40 mM, 168 h
  Glucose: 86.6 g/L
Lactobacillus sp.; Experiment B, 40 mM, 336 h
  Glucose: 86.2 g/L
Lactobacillus sp.; Experiment B, 40 mM, 508 h
  Glucose: 86.3 g/L
Lactobacillus sp.; Experiment C, 5 mM, 0 h
  Glucose: 85.4 g/L
Lactobacillus sp.; Experiment C, 5 mM, 168 h
  Glucose: 84.8 g/L
Lactobacillus sp.; Experiment C, 5 mM, 336 h
  Glucose: 83.4 g/L
Lactobacillus sp.; Experiment C, 5 mM, 508 h
  Glucose: 77.1 g/L
Lactobacillus sp.; Experiment C, 10 mM, 0 h
  Glucose: 84.8 g/L
Lactobacillus sp.; Experiment C, 10 mM, 168 h
  Glucose: 81.7 g/L
Lactobacillus sp.; Experiment C, 10 mM, 336 h
  Glucose: 81.9 g/L
Lactobacillus sp.; Experiment C, 10 mM, 508 h
  Glucose: 75.5 g/L
Lactobacillus sp.; Experiment C, 20 mM, 0 h
  Glucose: 85.9 g/L
Lactobacillus sp.; Experiment C, 20 mM, 168 h
  Glucose: 82.3 g/L
Lactobacillus sp.; Experiment C, 20 mM, 336 h
  Glucose: 83.5 g/L
Lactobacillus sp.; Experiment C, 20 mM, 508 h
  Glucose: 79.5 g/L
Lactobacillus sp.; Experiment C, 40 mM, 0 h
  Glucose: 80.9 g/L
Lactobacillus sp.; Experiment C, 40 mM, 168 h
  Glucose: 81.0 g/L
Lactobacillus sp.; Experiment C, 40 mM, 336 h
  Glucose: 85.6 g/L
Lactobacillus sp.; Experiment C, 40 mM, 508 h
  Glucose: 82.6 g/L
